Legend:
[1] = tested on: ldlr^−/−/apoB^100/100 mice; assay: ldlr-deficient, apoB100-only mice on western diet with established aortic valve disease (FCAVS); assay type: in vivo, mouse; settings: for relative collagen fiber thicknesses: picrosirius red
Excerpt: Pre-clinical animal studies: ldlr^−/−/apoB^100/100 mice are low density lipoprotein receptor-deficient, apolipoprotein B100-only mice that consistently develop severe, hemodynamically significant calcific aortic valve stenosis. Thus, these mice develop stenosis in a manner suitable for studying the effects of pharmacological interventions on initiation and progression of calcific aortic valve stenosis.
Two groups of ldlr^−/−/apoB^100/100 mice were placed on Western Diet (WD) for six months, a time point that allowed the mice to develop mild-to-moderate valvular stenosis. At the six-month time point, mice were randomized into two groups: • (1) continued western diet (WD)/continued disease progression group, or • (2) continued western diet+ataciguat in food (WD+ATA)/treatment group.
At the nine-month time point, mice underwent echocardiography (high resolution ultrasound) and blood pressure (tail cuff) measurement, and were sacrificed for tissue and molecular analyses of valvular tissue (histology, immunohistochemistry, quantitative real-time RT-PCR).
A therapeutically-relevant treatment strategy in which ldlr-deficient, apoB100-only mice were fed a western diet for six months (to develop mild/moderate FCAVS) followed by western diet plus ataciguat (150 ppm mixed in food).

[2] = tested on: patients with mild-to-moderate calcific aortic valve stenosis; assay: Phase I clinical trial, 14 days, blood pressure and orthostatic tolerance; assay type: in vivo, human
Excerpt: Phase I clinical trial design: Patients with mild-to-moderate calcific aortic valve stenosis (valve area between 1.0 cm^2 and 2.0 cm^2) with well-preserved left ventricular function (ejection fraction>50%) were recruited for participation in a randomized, double-blind, placebo-controlled trial. After screening, patients were randomized into two groups: • (1) placebo treatment for 14 days, or • (2) ataciguat treatment for 14 days. Patients underwent a series of tests to assess baseline blood pressure (seated and supine body positions), orthostatic tolerance (transition to standing, tilt table testing), and blood tests to assess liver enzyme function.
Combining ataciguat's role as an activator of heme-free sGC with reports of increased systemic oxidative stress in patients with FCAVS (Mourino-Alvarez et al., Int. J Cardiol., 225:99-106 (2016)), it was conceivable that administration of ataciguat could elicit acute hypotension or increase propensity to experience orthostatic hypotension. To investigate this possibility, a randomized, double-blind, placebo-controlled, dose-escalation study was conducted to assess the effects of ataciguat on orthostatic tolerance using both a standing test (highly functional) and a tilt table test (highly sensitive).

[3] = 14 days, vs pre-treatment or placebo

## O=C(Nc1ccc(S(=O)(=O)N2CCOCC2)cc1)c1cc(Cl)ccc1NS(=O)(=O)c1ccc(Cl)s1 [ataciguat, 5-chloro-2-[[(5-chloro-2-thienyl)sulfonyl]amino]-N-[4-(4-morpholinylsulfonyl)phenyl]-benzamide]
[1]; WD-fed mice, male and female
  ejection fraction: not improved further
[1]; both male and female mice
  canonical TGFβ signaling (SMAD2/3 phosphorylation) in valve tissue: increased
[1]; female mice
  Col1a1 expression (mRNA): significantly reduced
  expression of Col15a1 (mRNA): tended to be reduced
  relative collagen fiber thicknesses: increase the fraction of thinner fibers
[1]; long-term treatment
  aortic valve function (cusp separation distance by echocardiography), male versus female: only male mice received a therapeutic benefit
[1]; male and female animals
  calcification in valve tissue: reduced
[1]; male and female mice, three months
  SMAD1/5/8 phosphorylation in valve tissue: significantly attenuated
[1]; male and female mice, three months, RT-PCR
  markers of osteogenesis Runx2 and SPP1 (mRNA): reduced
[1]; male mice
  diastolic function (E/e′): significantly improved
  expression of Col15a1 (mRNA): increased
  expression of collagen 1a1 (mRNA): did not significantly affect
  relative collagen fiber thicknesses: did not impact
[1]; male mice compared with female mice
  valvular calcium, male versus female: Greater reductions in valvular calcium
[1]; male mice only, long-term treatment
  progression of valvular dysfunction and associated reductions in left ventricular diastolic function: significantly attenuated
[1]; male or female mice
  MMP2 expression: not altered
[1]; mice of both genders, 150 ppm in food, immunohistochemistry
  pVASP^239 in aortic valve tissue: significantly increased
[1]; mice of either gender, 150 ppm in food
  blood pressure: did not alter
[1]; only in female mice
  expression of the SMAD2/3 target genes CTGF and COL1A1: paradoxically reduced
[2]; 100 mg/day, 14 days
  seated systolic and diastolic blood pressure: significantly reduced
[2]; 200 mg/day, 14 days
  seated systolic and diastolic blood pressure: did not have a significant effect
[2]; 14 days
  supine systolic and diastolic blood pressure: significantly reduced
[2]; 14 days, seated to standing
  changes in heart rate upon standing: did not significantly or consistently alter
  changes in systolic and diastolic blood pressure upon standing: did not significantly or consistently alter
[2]; [3]
  blood pressure responses to head-up tilt: did not consistently or significantly alter
  heart rate responses to head-up tilt: did not consistently or significantly alter
[2]; either dose, 14 days
  resting blood pressure: did not significantly alter
[2]; humans
  tolerability (side effects and blood pressure regulation): well tolerated

From patent US12465605B2, “Methods and materials for gender-dependent treatment of cardiovascular dysfunction” (Mayo Foundation for Medical Education and Research, priority 2019, dated 2025)
